According to paper PMC11091117, “A fluorescently-tagged tick kinin neuropeptide triggers peristalsis and labels tick midgut muscles” (Scientific Reports, 2024):
“Also recorded” adds a separate entry of the source.

Experiments:
[1] = tested on: tick kinin receptor (recombinant R. microplus receptor, CHO-K1 BMLK3 cells); test: Cellular end-point fluorescence calcium mobilization assay, BMLK3 cells; type: cell-based, Rhipicephalus microplus
From the text: Three peptides were used in this study. These included: 1) the ligand for the endogenous tick kinin receptor from Rhipicephalus sanguineus, Rhisa-kinin 8 peptide of sequence GTGEDQAFSPWGamide (Rhisa-K-8; RK8; of identical sequence to Rhimi-K-8 in Rhipicephalus microplus)[48], 2) the same peptide but fluorescently labeled at the N-terminus with tetramethylrhodamine (TMR) a red fluorescent dye, designated TMR-Rhisa-K-8 (TMR-RK8), and 3) a labeled peptide synthesized with the scrambled sequence of the kinin ligand, designated TMR-Scrambled. The sequence of TMR-RK8 was TMR-C-GTGEDQAFSPWGamide). The TMR-Scrambled kinin (TMR-C-GTQWGPGFEADSamide) served as a negative control for tissue labeling. All peptides were custom-synthesized and purchased from GenScript (Piscataway, NJ, USA) with a purity of ≥ 95% and the cysteine in bold in both sequences was added to attach the label. Experiments were replicated with independently synthesized batches (4 mg each) of labeled and unlabeled peptides, for reproducibility. Unlabeled RK8 was used as a competitive ligand to verify target-specific binding of the labeled TMR-RK8 (see Ligand Competition Assay). For cell assays, the peptide stock solutions (100 µM) were made in 1% dimethyl sulfoxide (DMSO) in Hank’s balanced salt solution (HBSS, Thermo Fisher, Waltham, USA). For fluorescent cell labeling, peptide working solutions (10 µM) were prepared in HBSS from stock solutions. For assays on the midgut, peptides were solubilized and diluted in a tick physiological saline consisting of 140 mM NaCl, 5 mM KCl, 1 mM MgCl2, 5 mM CaCl2, 4 mM NaHCO3, and 5 mM HEPES, pH 7.2[49].
The tick kinin receptor is stably expressed in the recombinant CHO-K1 cell line designated BMLK3 (Boophilus microplus leucokinin receptor 3) that was constructed and selected as described by Holmes, et al.[47]. The CHO-K1 cells had been obtained from the American Type Culture Collection (ATCC) for transfection with the expression construct. This cell line has been kept in the laboratory since 2003. Cells that were transfected only with an empty plasmid are referred to as “vector-only” (V/O) cells and were used as a negative control. Before all experiments, the BMLK3 cell line or V/O cells were separately cultured in T-75 flasks with selective medium (F-12 K medium containing 10% FBS and 800 μgmL^−1 of G418 sulfate) for one to two passages in a humidified incubator at 37 °C and 5% CO2.
A fluorescence-based intracellular calcium mobilization end-point assay described by Xiong, et al.[50] was used to confirm the activity of the TMR-labeled RK8 peptide on a cell line expressing the tick kinin receptor. For this, BMLK3 and V/O cells were cultured in F-12 K medium (1% FBS and 400 μgmL^−1- of G418 Sulfate). The cells were seeded in a 96-well plate with 20,000 cells per well and incubated overnight at 37 °C and 5% CO2. The next morning, cells were prepared for the assay following the manufacturer’s instructions for the Fluo-8 Calcium Flux Assay Kit – NoWash (Abcam, Cambridge, United Kingdom). The F-12 K medium in the plate was removed by inverting the plate and gently blotting on paper towels. […] The calcium fluorescence signal was detected by a CLARIOstar (BMG LABTECH, Chicago, IL, United States) plate reader set to read at the fluorescence plate-mode with excitation and emission wavelengths of 490 and 525 nm at 29 °C. Calcium responses were read immediately after the addition of 10 µL of either TMR-RK8, unlabeled RK8, or blank solvent (1% DMSO in HBSS). […]

[2] = tested on: tick kinin receptor (recombinant R. microplus receptor, CHO-K1 BMLK3 cells); test: Confocal visualization of recombinant kinin receptor on live BMLK3 cells with fluorescently labeled kinin peptide; type: binding, Rhipicephalus microplus
From the text: Three peptides were used in this study. These included: 1) the ligand for the endogenous tick kinin receptor from Rhipicephalus sanguineus, Rhisa-kinin 8 peptide of sequence GTGEDQAFSPWGamide (Rhisa-K-8; RK8; of identical sequence to Rhimi-K-8 in Rhipicephalus microplus)[48], 2) the same peptide but fluorescently labeled at the N-terminus with tetramethylrhodamine (TMR) a red fluorescent dye, designated TMR-Rhisa-K-8 (TMR-RK8), and 3) a labeled peptide synthesized with the scrambled sequence of the kinin ligand, designated TMR-Scrambled. The sequence of TMR-RK8 was TMR-C-GTGEDQAFSPWGamide). The TMR-Scrambled kinin (TMR-C-GTQWGPGFEADSamide) served as a negative control for tissue labeling. […]
The BMLK3 and V/O cells (5000–10,000 cells) were seeded separately in 200 µL selective media onto the two chambers of the cover glass (Lab-Tek Chambered Coverglass, 4.2 cm^2 area, #1.0 German borosilicate glass, sterile, Cat # 155,380, Thermo Fisher Scientific Inc., Walthams, MA) and grown in the incubator overnight at 37 °C and 5% CO2. The next day, cells would be ready for fluorescent labeling: the selective media was replaced with 200 µL HBSS to rinse the cells. […] Images were analyzed and computer-colored using Fiji/ImageJ (National Institutes of Health, Bethesda, MD). […]

TMR-C-GTGEDQAFSPWGamide [TMR-RK8]
intracellular calcium fluorescence response / receptor activation (in words) ([1]; 10 nM to 10 μM (four concentrations), 1% DMSO in HBSS, Fluo-8, Ex 490/Em 525 nm, 29 °C, read 60 s at 1 s intervals, average raw fluorescence units of 4 technical replicates, simple linear regression): activated and labeled the recombinant R. microplus receptor expressed in CHO-K1 cells; also recorded: elicited a dose-dependent intracellular calcium fluorescence response; also recorded: functionally activates the tick recombinant kinin receptor in BMLK3 cells; also recorded: activated the receptor in a dose response fashion, similarly to the unlabeled RK8 peptide | fluorescence units at highest concentration, TMR-RK8 compared with RK8 (in words) ([1]; highest concentration assayed 10 µM, Fluo-8, 4 technical replicates): maximal and similar for the highest concentration assayed of 10 µM | effect of TMR label on peptide bioactivity (in words) ([1]; overlap of confidence intervals of cell responses to TMR-RK8 and RK8): the TMR fluorescent label did not impair peptide bioactivity | labeling of BMLK3 cells, Fig. S2 (in words) ([2]; 1 µM TMR-RK8, confocal Leica SP8 with DIC, 1.1 µm Z-step, 13 slices): observed in most cells | labeling of BMLK3 cells (in words) ([2]; live BMLK3 cells, 10 µM labeled peptide, 1 min, HBSS, confocal Leica SP8, Ex 542 nm, Em 572–759 nm): showed specific labeling; also recorded: observed only in BMLK3 cells
